Results on 21 molecules are retold here after PubChem BioAssay AID248 (DTP/NCI, 2004).

Inconclusive results and toxic doses are left out.

This assay deals with L1210 leukemia ip in BDF1 mice, survival T/C. As to the kind of experiment: NCI In Vivo Anticancer Drug Screen. Data for tumor model L1210 Leukemia (intraperitoneal) in B6D2F1 (BDF1) mice. The conditions noted are these: endpoint: mean survival time, higher = longer survival. The method, boiled down:
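Tumor was transplanted into mice, which were then dosed with test compound or vehicle alone. Survival was recorded for each group, and the treated figure was expressed relative to the control figure.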

Where [1] appears, read: dose: 100.0 mg/kg/injection, schedule: Q01DX001 (ip), vehicle: carboxymethylcellulose (CMC).
[2] abbreviates: dose: 200.0 mg/kg/injection, schedule: Q01DX001 (ip), vehicle: carboxymethylcellulose (CMC).
Where [3] appears, read: dose: 400.0 mg/kg/injection, schedule: Q01DX001 (ip), vehicle: carboxymethylcellulose (CMC).
Setting [4] is: dose: 200.0 mg/kg/injection, schedule: Q04DX002 (ip), vehicle: saline.
Where [5] appears, read: dose: 50.0 mg/kg/injection, schedule: Q01DX009 (ip), vehicle: saline.
Where [6] appears, read: dose: 100.0 mg/kg/injection, schedule: Q01DX009 (ip), vehicle: saline.
The mark [7] stands for this setting: dose: 200.0 mg/kg/injection, schedule: Q01DX009 (ip), vehicle: saline.
Where [8] appears, read: dose: 400.0 mg/kg/injection, schedule: Q01DX009 (ip), vehicle: saline.
Where [9] appears, read: dose: 100.0 mg/kg/injection, schedule: Q04DX003 (ip), vehicle: Klucel (hydroxypropylcellulose) (HPC).
Where [10] appears, read: dose: 200.0 mg/kg/injection, schedule: Q04DX003 (ip), vehicle: Klucel (hydroxypropylcellulose) (HPC).
Setting [11] is: dose: 400.0 mg/kg/injection, schedule: Q04DX003 (ip), vehicle: Klucel (hydroxypropylcellulose) (HPC).
Where [12] appears, read: dose: 100.0 mg/kg/injection, schedule: Q04DX002 (ip), vehicle: saline with Tween-80.
Where [13] appears, read: dose: 200.0 mg/kg/injection, schedule: Q04DX002 (ip), vehicle: saline with Tween-80.
[14] abbreviates: dose: 400.0 mg/kg/injection, schedule: Q04DX002 (ip), vehicle: saline with Tween-80.
Setting [15] is: dose: 100.0 mg/kg/injection, schedule: Q01DX009 (ip), vehicle: Klucel (hydroxypropylcellulose) (HPC).
Setting [16] is: dose: 400.0 mg/kg/injection, schedule: Q01DX009 (ip), vehicle: Klucel (hydroxypropylcellulose) (HPC).
The mark [17] stands for this setting: dose: 25.0 mg/kg/injection, schedule: Q01DX009 (ip), vehicle: saline.
Where [18] appears, read: dose: 100.0 mg/kg/injection, schedule: Q04DX003 (ip), vehicle: saline with Tween-80.
The mark [19] stands for this setting: dose: 200.0 mg/kg/injection, schedule: Q04DX003 (ip), vehicle: saline with Tween-80.
[20] abbreviates: dose: 400.0 mg/kg/injection, schedule: Q04DX003 (ip), vehicle: saline with Tween-80.

On to `COc1cc(-c2ccccc2)c([N+](=O)[O-])cc1[N+](=O)[O-]`, for which the T/C under setting [1] is 107 % of control, the T/C under setting [2] is 110 % of control and the T/C under setting [3] is 116 % of control.
For `Cc1ccc(Nc2cccc3c2C(=O)c2c(Nc4ccc(C)cc4C)cccc2C3=O)c(C)c1`, the T/C (dose: 100.0 mg/kg/injection, schedule: Q04DX002 (ip), vehicle: saline) was 97 % of control; the T/C under setting [4] is 117 % of control; the T/C (dose: 400.0 mg/kg/injection, schedule: Q04DX002 (ip), vehicle: saline) is 100 % of control.
For the molecule `c1ccc(P(=NC2CCCCCCC2)(c2ccccc2)c2ccccc2)cc1`, the T/C runs as follows: (dose: 100.0 mg/kg/injection, schedule: Q01DX001 (ip), vehicle: saline with Tween-80) 96 % of control; (dose: 200.0 mg/kg/injection, schedule: Q01DX001 (ip), vehicle: saline with Tween-80) 98 % of control; (dose: 400.0 mg/kg/injection, schedule: Q01DX001 (ip), vehicle: saline with Tween-80) 105 % of control.
In the case of `CN(C)c1c(F)c(F)c(N=Nc2ccccc2)c(F)c1F`, the T/C is 98 % of control under setting [1], 114 % of control under setting [2] and 98 % of control under setting [3].
As for `CC(C)SC=O`, the T/C by setting is: under setting [5], 94 % of control; under setting [6], 93 % of control; (dose: 100.0 mg/kg/injection, schedule: Q04DX003 (ip), vehicle: saline) 100 % of control; under setting [7], 93 % of control; (dose: 200.0 mg/kg/injection, schedule: Q04DX003 (ip), vehicle: saline) 105 % of control; under setting [8], 89 % of control. Also, under “dose: 400.0 mg/kg/injection, schedule: Q04DX003 (ip), vehicle: saline”, the T/C is 100 % of control.
On to `O=C1CC2(CCCCC2)C(=O)N1Nc1ccccc1`, for which the T/C reads like this: under setting [9], 105 % of control; under setting [10], 98 % of control; under setting [11], 102 % of control.
On to `Cc1c(NC(=O)Nc2cccc(Cl)c2)nc(Br)c2ccccc12`, for which the T/C runs as follows: under setting [12], 101 % of control; under setting [13], 96 % of control.
As for `Cn1cnc([N+](=O)[O-])c1Sc1nc(N)nc2c1ncn2C1CC(O)C(CO)O1` (centres undefined), the T/C runs as follows: (dose: 6.25 mg/kg/injection, schedule: Q01DX005 (ip), vehicle: saline) 155 % of control; (dose: 12.5 mg/kg/injection, schedule: Q01DX005 (ip), vehicle: saline) 173 % of control; (dose: 25.0 mg/kg/injection, schedule: Q01DX005 (ip), vehicle: saline) 150 % of control; (dose: 100.0 mg/kg/injection, schedule: Q01DX005 (ip), vehicle: saline) 94 % of control; (dose: 200.0 mg/kg/injection, schedule: Q01DX005 (ip), vehicle: saline) 107 % of control; (dose: 240.0 mg/kg/injection, schedule: Q01DX005 (ip), vehicle: saline) 122 % of control. Besides, for the setting “dose: 600.0 mg/kg/injection, schedule: Q01DX005 (ip), vehicle: saline”, the T/C was 115 % of control.
As to `C=CCNC(=S)Nc1ccc(OC(=O)Nc2ccc(Cl)c(Cl)c2)cc1`, the T/C under setting [12] is 102 % of control, the T/C under setting [13] is 97 % of control and the T/C under setting [14] was 105 % of control.
In the case of `OC1C2c3ccccc3C(c3c2cc(F)c2ccccc32)C1O` (centres undefined), the T/C is 102 % of control (dose: 37.5 mg/kg/injection, schedule: Q01DX001 (ip), vehicle: Klucel (hydroxypropylcellulose) (HPC)); 96 % of control (dose: 75.0 mg/kg/injection, schedule: Q01DX001 (ip), vehicle: Klucel (hydroxypropylcellulose) (HPC)); 104 % of control (dose: 150.0 mg/kg/injection, schedule: Q01DX001 (ip), vehicle: Klucel (hydroxypropylcellulose) (HPC)).
`CC1(C(Cl)(Cl)Cl)C=CC(=O)C(Cl)=C1` (centres undefined): the T/C is 100 % of control under setting [15]; 103 % of control (dose: 200.0 mg/kg/injection, schedule: Q01DX009 (ip), vehicle: Klucel (hydroxypropylcellulose) (HPC)); 97 % of control under setting [16].
`Cn1nc(N)c2cc(C(N)=O)c(N)nc21`: the T/C under setting [15] was 88 % of control; the T/C under setting [9] was 96 % of control; the T/C under setting [10] was 100 % of control; the T/C under setting [16] was 90 % of control; the T/C under setting [11] is 97 % of control.
For the molecule `Nc1nc(N)c(N=Nc2ccc(S(=O)(=O)Nc3ncccn3)cc2)cc1N=Nc1ccccc1`, the T/C under setting [1] was 101 % of control, the T/C under setting [2] is 95 % of control and the T/C under setting [3] is 103 % of control.
Turning to `CN(C)c1n[nH]c(N)n1`, the T/C runs as follows: under setting [17], 100 % of control; (dose: 25.0 mg/kg/injection, schedule: Q04DX002 (ip), vehicle: saline) 110 % of control; under setting [5], 98 % of control; (dose: 50.0 mg/kg/injection, schedule: Q04DX002 (ip), vehicle: saline) 103 % of control; under setting [6], 96 % of control; under setting [7], 108 % of control. Also, the T/C is 111 % of control under setting [13], 103 % of control under setting [4], 116 % of control under setting [8] and 108 % of control under setting [14].
With `CNCCCC(CO)NS(=O)(=O)c1ccc(C)cc1` (centres undefined), the T/C (dose: 100.0 mg/kg/injection, schedule: Q01DX001 (ip), vehicle: water) is 94 % of control; the T/C (dose: 100.0 mg/kg/injection, schedule: Q04DX003 (ip), vehicle: water) is 92 % of control; the T/C (dose: 200.0 mg/kg/injection, schedule: Q01DX001 (ip), vehicle: water) was 97 % of control; the T/C (dose: 200.0 mg/kg/injection, schedule: Q04DX003 (ip), vehicle: water) was 100 % of control; the T/C (dose: 400.0 mg/kg/injection, schedule: Q01DX001 (ip), vehicle: water) was 97 % of control; the T/C (dose: 400.0 mg/kg/injection, schedule: Q04DX003 (ip), vehicle: water) is 87 % of control.
With `O=c1[nH][nH]c(Cc2ccccc2)c1-c1ccccc1`, the T/C was 102 % of control under setting [9], 98 % of control under setting [10] and 101 % of control under setting [11].
For the molecule `CCCCN(CCCC)C(=O)NS(=O)(=O)c1ccc(N)cc1`, the T/C runs as follows: under setting [18], 95 % of control; under setting [19], 104 % of control; under setting [20], 101 % of control.
Turning to `N#CCN1CCCCC1`, the T/C under setting [17] was 115 % of control and the T/C under setting [5] is 112 % of control.
For `CC(=O)OC1CC2(Cl)CC1(Cl)C(Cl)=C2Cl` (centres undefined), the T/C was 105 % of control (dose: 50.0 mg/kg/injection, schedule: Q04DX003 (ip), vehicle: saline with Tween-80); 109 % of control (dose: 100.0 mg/kg/injection, schedule: Q01DX001 (ip), vehicle: other); 106 % of control under setting [18]; 100 % of control (dose: 200.0 mg/kg/injection, schedule: Q01DX001 (ip), vehicle: other); 109 % of control (dose: 400.0 mg/kg/injection, schedule: Q01DX001 (ip), vehicle: other); 103 % of control under setting [20].
For `CCP(=O)(CCP(=O)(c1ccccc1)c1ccccc1)c1ccccc1` (centres undefined), the T/C reads like this: (dose: 25.0 mg/kg/injection, schedule: Q04DX002 (ip), vehicle: saline with Tween-80) 97 % of control; (dose: 50.0 mg/kg/injection, schedule: Q04DX002 (ip), vehicle: saline with Tween-80) 103 % of control; under setting [12], 106 % of control.
`Nc1ncc(Br)cn1`: the T/C is 105 % of control under setting [18], 100 % of control under setting [19] and 102 % of control under setting [20].
